Measured values published in patent US4624944A, “Human seminal alpha-inhibins” (The Regents of The University of California, priority 1985, dated 1986).
Where no end group is shown, it is not given here.

Tests used:
[1] = test system: rabbit antiserum to alpha-IB-31; experiment: RIA of alpha-inhibins using rabbit antiserum to ILP (displacement of labelled [Tyr4]-alpha-IB-31); format: binding; conditions: for ED50 (RIA): rabbit antiserum to ILP; for ED50 (RIA) / Relative Potency (RIA): 95% confidence limits in parenthesis; for Relative Potency (RIA): relative to alpha-IB-31 = 1.00; for potency in displacing labelled [Tyr4]-alpha-IB-31, relative to alpha-IB-31: antiserum raised against alpha-IB-31, text statement
Experimental: Radioimmunoassay was performed with rabbit antiserum to alpha-IB-31. Amino acid analyses were performed in an automatic amino acid analyzer (Model 119C, Beckman) as described by Spackman, et al. (1958). The NH2 -terminal residue was determined by the dansyl-Edman procedure (Gray, 1967). For COOH-terminal residue analysis, carboxypeptidase Y digests were carried out in 1M pyridine acetate buffer (pH 5.5) for 4 hr at 37° C. with an enzyme-to-substrate ratio of 1:50. Trypsin digestions were performed with an enzyme-to-substrate ratio of 1:50 in 0.05M Tris/0.01 M Mg^2+, pH 8.5, at 37° C. for 4 hr.
Alpha-IB-52 and alpha-IB-92 cross-react to an antiserum raised against alpha-IB-31. They displace labelled [Tyr^4 ]-alpha-IB-31 with 60% of the potency of alpha-IB-31.

[2] = test system: LHRH-induced FSH secretion by mouse pituitary; experiment: FSH-suppressing (inhibin) activity, in vitro mouse pituitary system; format: cell-based; conditions: for ED50 (FSH-suppressing activity) / times more active than alpha-IB-31 in suppressing FSH (follitropin) release: mouse pituitaries in vitro; for ED50 (FSH-suppressing activity): LHRH-induced FSH secretion, 95% confidence limits in parenthesis; for Relative Potency (FSH-suppressing activity): relative to alpha-IB-31 = 1.0; for times more active than alpha-IB-31 in suppressing FSH (follitropin) release: text statement
Experimental: FIG. 6 is a graphical illustration of the effect of alpha-IB-31, alpha-IB-52, and alpha-IB-92 on LHRH-induced FSH secretion by mouse pituitary. Means ±SEM (n=5) are shown. On the graph solid circles represent alpha-IB-31; open circles represent alpha-IB-52; solid triangles represent alpha-IB-92.
Disc electrophoresis in polyacrylamide slab gels was performed as described by Reisfield, et al. (1962). The gels were stained with Coomassie Blue (R250). NaDodSO4 gel electrophoresis was carried out as described by Laemmli (1970). The inhibin activity was assayed by the in vitro mouse pituitary system (Yamashiro, et al., 1984; Ramasharma, et al., 1981).
FIG. 6 presents bioassay data for alpha-IB-31, alpha-IB-52 and alpha-IB-92 in suppressing the lutropin-releasing hormone (LHRH)-induced FSH secretion by using mouse pituitaries in vitro. […] The addition of 40 amino acids at the NH2 -terminus of alpha-IB-52 greatly enhance the inhibin activity.

pituitary FSH secretion = conditions: in vitro and in vivo, Yamashiro et al. (1984); cited from earlier work

Question: With “HNKQEGRDHDKSKGHFHRVVIHHKGGKAHRG [alpha-IB-31, alpha-inhibin-31, reference compound]” as the substance, how does the “ED50 (RIA)” value [1] read?
Answer: The value was 38 (29-50) fmoles.

Question: And the “Relative Potency (RIA)” value [1]?
Answer: Its value is 1.00.

Question: And the “ED50 (FSH-suppressing activity)” value [2]?
Answer: The value was 1.02 (0.34-2.9) pmol/ml.

Question: What about the “Relative Potency (FSH-suppressing activity)” value [2] of the same substance?
Answer: The value was 1.0.

Question: What about the “suppression of pituitary FSH secretion” value (pituitary FSH secretion) of the same substance?
Answer: The value was “suppresses pituitary FSH secretion in vitro and in vivo”.

Question: Which “potency in displacing labelled [Tyr4]-alpha-IB-31, relative to alpha-IB-31” value [1] does the source give for “HNKQEGRDHDKSKGHFHRVVIHHKGGKAHRGTQNPSQDQGNSPSGKGISSQY [alpha-IB-52, alpha-inhibin-52]” here?
Answer: Its value is 60%.

Question: And the “ED50 (RIA)” value [1]?
Answer: The value was 65 (45-92) fmoles.

Question: And the “Relative Potency (RIA)” value [1]?
Answer: The value was 0.58 (0.31-1.1).

Question: What about the “ED50 (FSH-suppressing activity)” value [2] of the same substance?
Answer: The value was 0.30 (0.18-0.52) pmol/ml.

Question: And the “times more active than alpha-IB-31 in suppressing FSH (follitropin) release” value [2]?
Answer: Its value is 3.4 times.

Question: What about the “Relative Potency (FSH-suppressing activity)” value [2] of the same substance?
Answer: The value was 3.4.

Question: What does the source list for alpha-inhibin-92 [alpha-IB-92]?
Answer: potency in displacing labelled [Tyr4]-alpha-IB-31, relative to alpha-IB-31 [1]: 60%; ED50 (RIA) [1]: 63 (42-94) fmoles; Relative Potency (RIA) [1]: 0.60 (0.31-1.2); ED50 (FSH-suppressing activity) [2]: 0.025 (0.01-0.049) pmol/ml; times more active than alpha-IB-31 in suppressing FSH (follitropin) release [2]: 40 times; times more active than alpha-IB-31 in suppressing FSH (follitropin) release ([2]; listed as alpha-inhibin-92): over 40 times; Relative Potency (FSH-suppressing activity) [2]: 40.5
